{"source": "paper PMC10584882", "about": "(Communications Biology, 2023)", "key": {"SARS-CoV-2": {"test_system": "SARS-CoV-2", "assay": "Cytopathic effect inhibition assay in LC-HK2 cells", "type": "cell-based", "conditions": "for CPE inhibition (%): LC-HK2"}, "CatL": {"molecular_target": "T1, CatL (Homo sapiens, UniProt P07711)", "T1 construct": "made in house", "T1 sequence (P07711 114-333)": "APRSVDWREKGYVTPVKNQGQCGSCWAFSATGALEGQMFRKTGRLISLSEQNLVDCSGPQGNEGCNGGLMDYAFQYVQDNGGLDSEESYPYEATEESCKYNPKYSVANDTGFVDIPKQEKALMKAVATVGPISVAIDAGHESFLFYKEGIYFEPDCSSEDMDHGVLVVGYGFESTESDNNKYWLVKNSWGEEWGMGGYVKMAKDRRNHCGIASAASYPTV", "assay": "Reversibility of covalent cathepsin inhibition (CatL, 60 min incubation)", "type": "biochemical", "conditions": "1 nM CatL, 1–80 nM inhibitor, 37 °C", "from_the_text": "We observed no increase in relative inhibition over time, thus concluding that the covalent bond between cathepsins and inhibitors is reversible."}, "human CatK": {"molecular_target": "T2, human CatK (Homo sapiens, UniProt P43235)", "T2 construct": "made in house", "T2 sequence (P43235 115-329)": "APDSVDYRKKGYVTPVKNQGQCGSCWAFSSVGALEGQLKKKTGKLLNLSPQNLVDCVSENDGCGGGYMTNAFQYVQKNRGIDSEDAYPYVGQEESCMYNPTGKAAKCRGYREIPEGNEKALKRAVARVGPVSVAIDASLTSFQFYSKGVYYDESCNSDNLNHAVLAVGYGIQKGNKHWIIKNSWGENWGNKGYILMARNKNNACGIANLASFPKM", "assay": "Cathepsin inhibition test, CatK", "type": "biochemical"}, "SARS-CoV-2 M^pro": {"molecular_target": "T3, SARS-CoV-2 M^pro (Severe acute respiratory syndrome coronavirus 2, UniProt P0DTD1)", "T3 construct": "Initially reported to target the viral main protease (M^pro); made in house", "type": "biochemical", "procedure": "In the enzyme inhibition assays, the initial velocities were calculated from the initial linear portions of their curves, assuming steady-state kinetics. IC50 and Ki values were calculated using GraphPad Prism software. Z-FR-AMC (CatK and CatV), Z-RR-AMC (CatB and CatL), and QS1 or Acetyl-VKLQ-AMC (M^pro) substrates were used to monitor reactions. These measurements were done in four independent duplicates or triplicates, respectively."}}, "note": "“And” between values parts separate entries of the source, which are not always exact repeats. Equal entries are not always repeated. Where two headings read alike, the source gives them in different places."}
{"smiles": "CCCC[C@@H](C=O)NC(=O)[C@H](CC(C)C)NC(=O)OCc1ccccc1", "note": "[Calpeptin, reference compound]", "values": [{"measurement": "CPE inhibition (%)", "setting": "SARS-CoV-2; 0.00000001 μM, 10 fM", "value": 8.96, "unit": "%"}, {"measurement": "CPE inhibition (%)", "setting": "SARS-CoV-2; 0.0000001 μM, 100 fM", "value": 9.11, "unit": "%"}, {"measurement": "CPE inhibition (%)", "setting": "SARS-CoV-2; 0.001 μM", "value": 0.77, "unit": "%"}, {"measurement": "CPE inhibition (%)", "setting": "SARS-CoV-2; 0.01 μM", "value": 24.54, "unit": "%"}, {"measurement": "CPE inhibition (%)", "setting": "SARS-CoV-2; 0.1 μM", "value": 36.51, "unit": "%"}, {"measurement": "CPE inhibition (%)", "setting": "SARS-CoV-2; 1 μM", "value": 50.4, "unit": "%"}, {"measurement": "CPE inhibition (%)", "setting": "SARS-CoV-2; 10 μM", "value": 59.73, "unit": "%"}, {"measurement": "inhibition at 1e-12 µM", "setting": "SARS-CoV-2; Severe acute respiratory syndrome coronavirus 2, LC-HK2, 0.000000000001 μM (first of two lines so printed, r18), read-out: CPE inhibition (%)", "value": 0, "unit": "%"}, {"measurement": "inhibition at 1e-12 µM", "setting": "SARS-CoV-2; Severe acute respiratory syndrome coronavirus 2, LC-HK2, 0.000000000001 μM (second line, r19), read-out: CPE inhibition (%)", "value": 0, "unit": "%"}, {"measurement": "inhibition at 1e-11 µM", "setting": "SARS-CoV-2; Severe acute respiratory syndrome coronavirus 2, LC-HK2, 0.00000000001 μM, read-out: CPE inhibition (%)", "value": 0, "unit": "%"}, {"measurement": "inhibition at 1 fM", "setting": "SARS-CoV-2; Severe acute respiratory syndrome coronavirus 2, LC-HK2, 0.000000001 μM, read-out: CPE inhibition (%)", "value": 0, "unit": "%"}, {"measurement": "inhibition at 10 pM", "setting": "SARS-CoV-2; Severe acute respiratory syndrome coronavirus 2, LC-HK2, 0.00001 μM, read-out: CPE inhibition (%)", "value": 0, "unit": "%"}, {"measurement": "inhibition at 0.0001 µM", "setting": "SARS-CoV-2; Severe acute respiratory syndrome coronavirus 2, LC-HK2, 0.0001 μM, read-out: CPE inhibition (%)", "value": 0, "unit": "%"}, {"measurement": "inhibition at 0.01 µM", "setting": "SARS-CoV-2; Severe acute respiratory syndrome coronavirus 2, LC-HK2, 0.01 μM, read-out: CPE inhibition (%)", "value": 19, "unit": "%"}, {"measurement": "inhibition at 0.1 µM", "setting": "SARS-CoV-2; Severe acute respiratory syndrome coronavirus 2, LC-HK2, 0.1 μM, read-out: CPE inhibition (%)", "value": 24.4, "unit": "%"}, {"measurement": "inhibition at 1 µM", "setting": "SARS-CoV-2; Severe acute respiratory syndrome coronavirus 2, LC-HK2, 1 μM, read-out: CPE inhibition (%)", "value": 60.8, "unit": "%"}, {"measurement": "inhibition at 10 µM", "setting": "SARS-CoV-2; Severe acute respiratory syndrome coronavirus 2, LC-HK2, 10 μM, read-out: CPE inhibition (%)", "value": 52.8, "unit": "%"}, {"measurement": "EC50", "setting": "SARS-CoV-2; Severe acute respiratory syndrome coronavirus 2, LC-HK2, CellTiter-Glo, 72 h post-infection, read-out: CPE inhibition EC50", "value": 60, "unit": "nM"}, {"measurement": "reversibility of covalent bond to cathepsin", "setting": "CatL", "value": "reversible"}, {"measurement": "Residual activity (Vi/V0)", "setting": "human CatK; Fig. S3 panel a, inhibitor 0.010 nM, single replicates, 10 pM", "value": "0.8228 and 0.7849 and 0.8924"}, {"measurement": "remaining activity at 10 pM", "setting": "human CatK; Fig. S3 panel a, inhibitor 0.010 nM, single replicates, read-out: Residual activity (Vi/V0)", "value": 79.2, "unit": "%"}, {"measurement": "Residual activity (Vi/V0)", "setting": "human CatK; Fig. S3 panel a, inhibitor 0.018 nM, single replicates, 18 pM", "value": "0.692 and 0.7935 and 0.8793 and 0.9792"}, {"measurement": "Residual activity (Vi/V0)", "setting": "human CatK; Fig. S3 panel a, inhibitor 0.032 nM, single replicates, 32 pM", "value": "0.6266 and 0.7672 and 0.8012 and 0.8701"}, {"measurement": "Residual activity (Vi/V0)", "setting": "human CatK; Fig. S3 panel a, inhibitor 0.058 nM, single replicates, 58 pM", "value": "0.6214 and 0.5994 and 0.7911 and 0.9302"}, {"measurement": "Residual activity (Vi/V0)", "setting": "human CatK; Fig. S3 panel a, inhibitor 0.105 nM, single replicates, 0.000105 µM", "value": "0.4801 and 0.5677 and 0.7764"}, {"measurement": "Residual activity (Vi/V0)", "setting": "human CatK; Fig. S3 panel a, inhibitor 0.189 nM, single replicates, 0.000189 µM", "value": "0.4602 and 0.558 and 0.5219 and 0.7569"}, {"measurement": "Residual activity (Vi/V0)", "setting": "human CatK; Fig. S3 panel a, inhibitor 0.340 nM, single replicates, 0.00034 µM", "value": "0.3878 and 0.4931 and 0.523"}, {"measurement": "remaining activity at 0.00034 µM", "setting": "human CatK; Fig. S3 panel a, inhibitor 0.340 nM, single replicates, read-out: Residual activity (Vi/V0)", "value": 34.5, "unit": "%"}, {"measurement": "Residual activity (Vi/V0)", "setting": "human CatK; Fig. S3 panel a, inhibitor 0.612 nM, single replicates, 0.000612 µM", "value": "0.4226 and 0.3636 and 0.4242"}, {"measurement": "remaining activity at 0.000612 µM", "setting": "human CatK; Fig. S3 panel a, inhibitor 0.612 nM, single replicates, read-out: Residual activity (Vi/V0)", "value": 40.6, "unit": "%"}, {"measurement": "Residual activity (Vi/V0)", "setting": "human CatK; Fig. S3 panel a, inhibitor 1.103 nM, single replicates, 0.001103 µM", "value": "0.2715 and 0.287 and 0.3208"}, {"measurement": "remaining activity at 0.001103 µM", "setting": "human CatK; Fig. S3 panel a, inhibitor 1.103 nM, single replicates, read-out: Residual activity (Vi/V0)", "value": 28.1, "unit": "%"}, {"measurement": "Residual activity (Vi/V0)", "setting": "human CatK; Fig. S3 panel a, inhibitor 1.985 nM, single replicates, 0.001985 µM", "value": "0.3296 and 0.262 and 0.2126"}, {"measurement": "remaining activity at 0.001985 µM", "setting": "human CatK; Fig. S3 panel a, inhibitor 1.985 nM, single replicates, read-out: Residual activity (Vi/V0)", "value": 22.7, "unit": "%"}, {"measurement": "Residual activity (Vi/V0)", "setting": "human CatK; Fig. S3 panel a, inhibitor 3.572 nM, single replicates, 0.003572 µM", "value": "0.1196 and 0.134 and 0.13"}, {"measurement": "remaining activity at 0.003572 µM", "setting": "human CatK; Fig. S3 panel a, inhibitor 3.572 nM, single replicates, read-out: Residual activity (Vi/V0)", "value": 12.2, "unit": "%"}, {"measurement": "Residual activity (Vi/V0)", "setting": "human CatK; Fig. S3 panel a, inhibitor 6.430 nM, single replicates, 0.00643 µM", "value": "0.07914 and 0.03985 and 0.09073 and 0.08937"}, {"measurement": "Residual activity (Vi/V0)", "setting": "human CatK; Fig. S3 panel a, inhibitor 11.547 nM, single replicates, 0.011547 µM", "value": "0.02749 and 0.03914 and 0.04269"}, {"measurement": "remaining activity at 0.011547 µM", "setting": "human CatK; Fig. S3 panel a, inhibitor 11.547 nM, single replicates, read-out: Residual activity (Vi/V0)", "value": 3.75, "unit": "%"}, {"measurement": "Residual activity (Vi/V0)", "setting": "human CatK; Fig. S3 panel a, inhibitor 20.833 nM, single replicates, 0.020833 µM", "value": "0.006913 and 0.01907 and 0.01563"}, {"measurement": "Residual activity (Vi/V0)", "setting": "human CatK; Fig. S3 panel a, inhibitor 37.500 nM, single replicates, 0.0375 µM", "value": "-0.03871 and -0.04863 and 0.01233 and 0.01242"}, {"measurement": "Ki", "setting": "human CatK; mean with standard deviation and 95% confidence interval, pH 5.5, 37 °C", "value": 0.061, "unit": "nM"}, {"measurement": "range of M^pro inhibition (in words)", "setting": "SARS-CoV-2 M^pro", "value": "micromolar range"}]}
